Earlier results in patent US20210228408A1, “Glaucoma Treatment Via Intracameral Ocular Implants” (Allergan, Inc., priority 2015, published 2021).

What was measured:
[1] = biological target: Cloned Human Ciliary Body FP Prostaglandin Receptor (Homo sapiens, UniProt P43088); conditions: read-out: Functional Potency, EC50
[2] = biological target: prostaglandin F (FP) receptor (Homo sapiens, UniProt P43088); conditions: read-out: Most potent measured EC50 on FP receptor
prostaglandin F (FP) receptor, sequence (P43088 whole entry): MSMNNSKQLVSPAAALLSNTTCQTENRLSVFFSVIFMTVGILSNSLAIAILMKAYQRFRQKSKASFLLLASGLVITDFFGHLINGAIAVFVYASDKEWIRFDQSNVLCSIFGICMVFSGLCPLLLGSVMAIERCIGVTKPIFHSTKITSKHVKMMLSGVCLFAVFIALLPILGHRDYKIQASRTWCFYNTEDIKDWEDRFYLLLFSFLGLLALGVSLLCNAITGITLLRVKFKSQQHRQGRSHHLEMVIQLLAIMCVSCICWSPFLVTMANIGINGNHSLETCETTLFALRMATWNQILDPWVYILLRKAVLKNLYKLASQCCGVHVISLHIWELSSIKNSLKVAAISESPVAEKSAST

Cloned Human Ciliary Body FP Prostaglandin Receptor, sequence (P43088 whole entry): as above

SMILES | EC50 [1] [nM] | EC50 [2] [nM]
O=C(O)CCC/C=C\C[C@@H]1[C@@H](/C=C/[C@@H](O)CCc2ccccc2)[C@H](O)C[C@@H]1O [Bimatoprost acid] | 5.8 | ~3.3
O=C(O)CCC/C=C\C[C@@H]1[C@@H](/C=C/[C@@H](O)COc2cccc(C(F)(F)F)c2)[C@H](O)C[C@@H]1O [Travoprost acid] | 3.2 | 1.4
CC(C)OC(=O)CCC/C=C\C[C@@H]1[C@@H](/C=C/[C@@H](O)COc2cccc(C(F)(F)F)c2)[C@H](O)C[C@@H]1O [Travoprost, propan-2-yl 7-[3,5-dihydroxy-2-[3-hydroxy-4-[3-(trifluoromethyl)phenoxy]-but-1-enyl]-cyclopentyl]hept-5-enoate] |  | ~1.4
